Data published in patent US4920016A, “Liposomes with enhanced circulation time” (Linear Technology, Inc., priority 1987, dated 1990).

Assay: Uptake of doxorubicin into J6456 mouse tumors
Conditions: in vivo, J6456 mice, IV, fluorometric (Table 14), read-out: Percent of Injected Dose (DXR)/q Tumor (SD)
Protocol: Sized MLVs having one of the three lipid compositions shown in Table 14 below were prepared as above. Doxorubicin was included in the hydration buffer, at a concentration of about 5 mg/ml, and free drug was removed from the sized liposomes by gel filtration.
Mice innoculated with J6456 lymphoma cells were injected IV with the MLVs (1 umole phospholipid/animal) or with an equivalent amount of free doxorubicin. Tissue distribution of the drug, 24 hours post administration, was determined fluorometrically, with the results shown in Tables 13 below.

COc1cccc2c1C(=O)c1c(O)c3c(c(O)c1C2=O)C[C@@](O)(C(=O)CO)C[C@@H]3O[C@H]1C[C@H](N)[C@H](O)[C@H](C)O1 [FREE DXR, doxorubicin]
tissue uptake at 24 h: 0.4 %ID/g
